Reference: PubChem BioAssay (NCI)
Where “and” joins values, the source holds several entries; their conditions need not be identical. Identical values can stand only once.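 How tested: cells in 96-well plates exposed to compound for 48 hours at five concentrations. GI50 = concentration required for 50% inhibition of growth. Definition used: TGI = concentration required for complete inhibition of growth.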

Legend:
Experiment in all cases: NCI-60 cell line screen, 48 h
[1] = tested on: SK-OV-3 ovarian
[2] = tested on: ACHN renal
[3] = tested on: EKVX NSCLC
[4] = tested on: SK-MEL-28 melanoma
[5] = tested on: SF-539 CNS
[6] = tested on: UO-31 renal
[7] = tested on: SF-268 CNS
[8] = tested on: SW-620 colon
[9] = tested on: SK-MEL-2 melanoma
[10] = tested on: HCT-15 colon
[11] = tested on: UACC-62 melanoma
[12] = tested on: MDA-N
[13] = tested on: NCI-H226 lung
[14] = tested on: OVCAR-4 ovarian
[15] = tested on: SN12C renal
[16] = tested on: KM12 colon
[17] = tested on: K-562 leukemia
[18] = tested on: SK-MEL-5 melanoma
[19] = tested on: HOP-62 NSCLC
[20] = tested on: MCF7 breast
[21] = tested on: NCI-H23 lung
[22] = tested on: HCT-116 colon
[23] = tested on: SNB-19 CNS
[24] = tested on: MDA-MB-231 breast
[25] = tested on: HOP-92 NSCLC
[26] = tested on: BT-549 breast
[27] = tested on: SF-295 CNS
[28] = tested on: CCRF-CEM leukemia
[29] = tested on: SNB-75 CNS
[30] = tested on: UACC-257 melanoma
[31] = tested on: A498 renal
[32] = tested on: HCC-2998 colon
[33] = tested on: HT29 colon
[34] = tested on: OVCAR-5 ovarian
[35] = tested on: OVCAR-8 ovarian
[36] = tested on: HS 578T breast
[37] = tested on: MOLT-4 leukemia
[38] = tested on: NCI-H522 lung
[39] = tested on: U251 CNS
[40] = tested on: SR leukemia
[41] = tested on: MDA-MB-435
[42] = tested on: TK-10 renal
[43] = tested on: CAKI-1 renal
[44] = tested on: HL-60(TB) leukemia
[45] = tested on: NCI/ADR-RES ovarian
[46] = tested on: MALME-3M melanoma
[47] = tested on: NCI-H460 lung
[48] = tested on: T-47D breast
[49] = tested on: M14 melanoma
[50] = tested on: 786-0 renal
[51] = tested on: IGROV1 ovarian
[52] = tested on: DU-145 prostate
[53] = tested on: PC-3 prostate
[54] = tested on: A549 NSCLC
[55] = tested on: RXF 393 renal
[56] = tested on: LOX IMVI melanoma
[57] = tested on: COLO 205 colon
[58] = tested on: OVCAR-3 ovarian
[59] = tested on: RPMI-8226 leukemia

## COc1ccc(Oc2nc3cc(C(F)(F)F)ccc3nc2C(C)C)cc1
[1]
  TGI: > 100 µM
[2]
  TGI: 90.4 µM
[3]
  TGI: 50.1 µM
[4]
  TGI: > 100 µM
[5]
  TGI: > 100 µM
[6]
  TGI: 95 µM
[7]
  TGI: > 100 µM
[8]
  TGI: 84.2 µM
[9]
  TGI: 38.5 µM
[10]
  TGI: 59.4 µM
[11]
  TGI: > 100 µM
[12]
  TGI: > 100 µM
[13]
  TGI: 49.6 µM
[14]
  TGI: > 100 µM
[15]
  TGI: 59.7 µM
[16]
  TGI: > 100 µM
[17]
  TGI: 86.7 µM
[18]
  TGI: 52.2 µM
[19]
  TGI: > 100 µM
[20]
  TGI: 39.5 µM
[21]
  TGI: 52.6 µM
[22]
  TGI: > 100 µM
[23]
  TGI: > 100 µM
[24]
  TGI: 79 µM
[25]
  TGI: 54.9 µM
[26]
  TGI: 65.8 µM
[27]
  TGI: 51 µM
[28]
  TGI: > 100 µM
[29]
  TGI: 95.7 µM
[30]
  TGI: 73.9 µM
[31]
  TGI: 58.3 µM
[32]
  TGI: 41.5 µM
[33]
  TGI: 44.6 µM
[34]
  TGI: 77.4 µM
[35]
  TGI: 94.5 µM
[36]
  TGI: > 100 µM
[37]
  TGI: 36.9 µM
[38]
  TGI: 41.3 µM
[39]
  TGI: 50.8 µM
[40]
  TGI: 36.6 µM
[41]
  TGI: > 100 µM
[42]
  TGI: > 100 µM
[43]
  TGI: > 100 µM
[44]
  TGI: 37.7 µM
[45]
  TGI: 44.1 µM
[46]
  TGI: 72.4 µM
[47]
  TGI: 68.8 µM
[48]
  TGI: 54.4 µM
[49]
  TGI: > 100 µM
[50]
  TGI: > 100 µM
[51]
  TGI: 82.7 µM
[52]
  TGI: > 100 µM
[53]
  TGI: > 100 µM
[54]
  TGI: > 100 µM
[55]
  TGI: 40.7 µM
[56]
  TGI: 30.5 µM
[57]
  TGI: 30.2 µM
[58]
  TGI: 93.3 µM
[59]
  TGI: 42.4 µM

## C/C(=N/NC(=S)Nc1cccc(Cl)c1)c1cccc(/C(C)=N\NC(=S)Nc2cccc(Cl)c2)n1
[1]
  TGI: > 55.3 µM
[2]
  TGI: 6.73 µM
[3]
  TGI: > 39.7 µM
[4]
  TGI: > 100 µM
[5]
  TGI: 3.72 µM
[6]
  TGI: > 20.9 µM
[7]
  TGI: > 47.8 µM
[8]
  TGI: > 100 µM
[9]
  TGI: > 43.9 µM
[10]
  TGI: > 100 µM
[11]
  TGI: 16.4 µM
[12]
  TGI: > 65.7 µM
[13]
  TGI: 5.44 µM
[14]
  TGI: > 100 µM
[15]
  TGI: > 46.3 µM
[16]
  TGI: > 100 µM
[17]
  TGI: > 40.4 µM
[18]
  TGI: 35 µM
[19]
  TGI: 23.8 µM
[20]
  TGI: 8.94 µM
[21]
  TGI: > 38.5 µM
[22]
  TGI: > 35.4 µM
[23]
  TGI: > 100 µM
[24]
  TGI: > 100 µM
[25]
  TGI: > 100 µM
[26]
  TGI: > 100 µM
[27]
  TGI: > 30 µM
[28]
  TGI: 16.2 µM
[29]
  TGI: 40.8 µM
[30]
  TGI: 56 µM
[31]
  TGI: > 100 µM
[32]
  TGI: > 100 µM
[33]
  TGI: > 42.4 µM
[34]
  TGI: > 85.8 µM
[35]
  TGI: > 37.5 µM
[36]
  TGI: > 74.6 µM
[37]
  TGI: 8.67 µM
[38]
  TGI: > 27 µM
[39]
  TGI: > 59.3 µM
[40]
  TGI: 4.56 µM
[41]
  TGI: > 100 µM
[42]
  TGI: > 100 µM
[43]
  TGI: > 48.1 µM
[44]
  TGI: > 100 µM
[45]
  TGI: > 100 µM
[46]
  TGI: 22.4 µM
[47]
  TGI: > 44.7 µM
[48]
  TGI: > 100 µM
[49]
  TGI: 7.76 µM
[50]
  TGI: > 41.7 µM
[51]
  TGI: > 75.2 µM
[52]
  TGI: > 73.1 µM
[53]
  TGI: > 58.1 µM
[54]
  TGI: > 24.5 µM
[55]
  TGI: > 43.9 µM
[56]
  TGI: > 38.5 µM
[57]
  TGI: > 100 µM
[59]
  TGI: 15.9 µM

## COc1cc2c(cc1OCCN1C(=O)c3cccc4cccc(c34)C1=O)N=C[C@@H]1CCCN1C2=O
[1]
  TGI: 46.5 µM
[2]
  GI50: 19 µM
  TGI: 14.9 µM and 33 µM
[3]
  GI50: 13.8 µM
  TGI: 18.3 µM and 26.7 µM
[4]
  GI50: 19.7 µM
  TGI: 16.3 µM and 49.3 µM
[5]
  TGI: 17.3 µM
[6]
  GI50: 16.8 µM
  TGI: 15.8 µM and 30.5 µM
[7]
  TGI: 15.3 µM
[8]
  GI50: 17.2 µM
  TGI: 15.8 µM and > 100 µM
[9]
  GI50: 16.6 µM
  TGI: 14.5 µM and 32.7 µM
[10]
  GI50: 18.6 µM
  TGI: 21.4 µM and 40.2 µM
[11]
  GI50: 17.8 µM
  TGI: 14.9 µM and 37.5 µM
[12]
  GI50: 20.3 µM
  TGI: 14.8 µM and 45.8 µM
[13]
  TGI: 32.4 µM
[14]
  TGI: 50 µM and 39 µM
[15]
  TGI: 14.7 µM
[16]
  GI50: 12.4 µM
  TGI: 50 µM and 24.9 µM
[17]
  GI50: 7.63 µM
  TGI: 10.9 µM and > 100 µM
[18]
  GI50: 13.1 µM
  TGI: 15.5 µM and 28.2 µM
[19]
  TGI: 47.5 µM
[20]
  GI50: 13.6 µM
  TGI: 18.2 µM and > 100 µM
[21]
  GI50: 16.8 µM
  TGI: 20.2 µM and 32.3 µM
[22]
  GI50: 20.6 µM
  TGI: 14.5 µM and 45.4 µM
[23]
  GI50: 37.7 µM
  TGI: 30.2 µM and > 100 µM
[24]
  GI50: > 100 µM
  TGI: 14.6 µM and > 100 µM
[25]
  GI50: 19.5 µM
  TGI: 17.3 µM and 55.4 µM
[26]
  TGI: 16.9 µM
[27]
  GI50: 32 µM
  TGI: 50 µM and > 100 µM
[28]
  GI50: 1.44 µM
  TGI: 23.1 µM and 19.5 µM
[29]
  TGI: 45 µM
[30]
  GI50: 18 µM
  TGI: 19 µM and 35.8 µM
[31]
  GI50: 19.6 µM
  TGI: 16.6 µM and 42.8 µM
[32]
  GI50: 14.5 µM
  TGI: 15.6 µM and 27.6 µM
[33]
  GI50: 14.4 µM
  TGI: 16.9 µM and 29.8 µM
[34]
  GI50: 23.9 µM
  TGI: 18.1 µM and 49.9 µM
[35]
  GI50: 16.6 µM
  TGI: 17.1 µM and 36.7 µM
[36]
  GI50: 15.2 µM
  TGI: 19.9 µM and 35.8 µM
[37]
  GI50: 42.2 µM
  TGI: 11 µM and > 100 µM
[38]
  GI50: 1.58 µM
  TGI: 4.51 µM and 10.2 µM
[39]
  GI50: 14.2 µM
  TGI: 12.6 µM and > 100 µM
[40]
  TGI: > 100 µM
[41]
  GI50: 16 µM
  TGI: 25 µM and 35.9 µM
[42]
  TGI: 14.8 µM
[43]
  GI50: 18.8 µM
  TGI: 19.8 µM and 36.2 µM
[45]
  GI50: 22.5 µM
  TGI: 45.8 µM and 56.3 µM
[46]
  GI50: 11.7 µM
  TGI: 15.7 µM and 24.5 µM
[47]
  GI50: 15.5 µM
  TGI: 13.9 µM and 29.9 µM
[48]
  GI50: 18.9 µM
  TGI: 28.2 µM and > 100 µM
[49]
  GI50: 22.5 µM
  TGI: 15.7 µM and 70.6 µM
[50]
  GI50: 16.5 µM
  TGI: 14.7 µM and 33.9 µM
[51]
  GI50: 12.4 µM
  TGI: 11.6 µM and 25.6 µM
[52]
  GI50: 18.1 µM
  TGI: 17.4 µM and 35.9 µM
[53]
  GI50: 15 µM
  TGI: 13.6 µM and 28.2 µM
[54]
  GI50: 17.7 µM
  TGI: 17.1 µM and 53.1 µM
[55]
  GI50: 20.9 µM
  TGI: 15 µM and 36.3 µM
[56]
  TGI: 12.3 µM
[57]
  GI50: 14.9 µM
  TGI: 15.1 µM and 30.6 µM
[58]
  GI50: 14.9 µM
  TGI: 13.1 µM and 28.2 µM
[59]
  GI50: 26 µM
  TGI: 32 µM and > 100 µM
